≈ marks a conversion by molar mass, not a printed value.
Assays:
AG016 S. aureus BM3002 = experiment: Standard MIC assay, AG016; type: cell-based, Staphylococcus aureus; conditions: for MIC: Staphylococcus aureus, read-out: Minimal inhibitory concentrations AG016
Experimental: (§1) Selected compounds of the present invention were tested for antibiotic susceptibility using clinical isolates of Staphylococci, Enterococci and Escherichia coli as well as strains carrying defined resistance determinants and compared to well known antibiotics of the state of the art. Drug susceptibility was determined in standard MIC assays, i.e. by determination of the minimal drug concentration required to inhibit bacterial growth in vitro.

AG017 E. faecalis JH2-2 = experiment: Standard MIC assay, AG017; type: cell-based, Enterococcus faecalis; conditions: for MIC: Enterococcus faecalis, read-out: Minimal inhibitory concentrations AG017
Experimental: as §1

[1] = system: M. smegmatis ΔrrnB 1491A (16S rRNA position 1491 A, eukaryotic cytosolic ribosomes); experiment: MIC, recombinant M. smegmatis with mutant ribosomes 1491A; type: cell-based, Mycobacterium smegmatis; conditions: M. smegmatis ΔrrnB 1491A mutant ribosomes; 72 h at 37° C.
Description: (§2) The strain used for introduction/selection of mutational alterations was a genetically modified derivative of Mycobacterium smegmatis carrying a single functional chromosomal rRNA operon (Sander et al. Mol. Microbiol. 1996, 22: 841-848). This strain, termed M. smegmatis rrn^−, allowed for the selection of mutational rRNA gene alterations using a plasmid carrying the rRNA gene with the respective mutational alteration.)
(§3) The rRNA gene carried on the plasmid encodes either the complete rRNA operon (Prammananan et al. Antimicrob. Agents Chemother. 1999, 43: 447-453) or a non-functional rRNA gene fragment of approximately 1.0 kb (Pfister et al. Antimicrob. Agents Chemother. 2003, 47: 1496-1502). PCR-mutagenesis in vitro was used to generate the mutagenized rRNA gene fragment. In the case of a partial rRNA gene fragment the mutagenized rRNA gene fragment was cloned into vectors pMV261 or pMV361 (Sander et al. Mol. Microbiol. 2002, 46: 1295-1304; Pfister et al. Antimicrob. Agents Chemother. 2003, 47: 1496-1502) to result in vectors carrying a partial rRNA gene fragment of approximately 1.0 kb with the mutational alteration introduced. In the case of plasmids carrying the complete rRNA operon the mutagenized rRNA gene fragment obtained by PCR was cloned into vectors pMV361 rRNA or pMV261 rRNA using appropriate restriction sites (Prammananan et al. Antimicrob. Agents Chemother. 1999, 43: 447-453). Vectors pMV361 rRNA and pMV261 rRNA carried a complete copy of the rRNA operon from M. smegmatis (Sander et al. Mol. Microbiol. 1997, 26: 469-480). Introduction of mutations into the plasmid encoded rRNA was confirmed by sequencing.
(§4) The single rRNA allelic derivative of M. smegmatis, i.e. M. smegmatis rrn, was used for transformation of the plasmids. The strain was made electro-competent and transformed according to standard techniques and as described previously (Sander et al. Mol. Microbiol. 1997, 26: 469-484). Following primary selection, the plasmid-encoded mutational rRNA gene alteration was transferred into the single chromosomal rRNA operon by means of RecA-mediated homologous recombination (Prammananan at al. Antimicrob. Agents Chemother. 1999, 43: 447-453). Introduction of the mutational rRNA gene alteration into the single functional chromosomal rRNA operon by gene conversion was confirmed by sequence determination.
(§5) Ribosomal drug susceptibility was studied by determining the minimal inhibitory concentrations, as described in detail in Pfister et al. 2003 and 2005 (see above).
(§6) The recombinants carrying the respective mutational alterations in the functional rRNA operon were colony-purified and subjected to determinations of minimal inhibitory concentrations (MIC) to determine ribosomal drug susceptibility. Cultures from single colonies were grown in LB medium supplemented with 0.05% Tween 80 and used for MIC tests in a microtiter plate format. Starting cultures contained 200 μl of bacterial cells at an optical density of 0.025 at 600 nm, and the respective drug was added in twofold series of dilution.
(§7) Key nucleotides which distinguish the prokaryotic from the eukaryotic decoding site are 16S rRNA positions 1408 (bacterial ribosome: A, eukaryotic cytosolic ribosomes: G) and 1491 (bacterial ribosomes: G, eukaryotic cytosolic ribosomes: A, eukaryotic mitochondrial ribosome: C).

[2] = system: M. smegmatis ΔrrnB 1491C (16S rRNA position 1491 C, eukaryotic mitochondrial ribosome); experiment: MIC, recombinant M. smegmatis with mutant ribosomes 1491C; type: cell-based, Mycobacterium smegmatis; conditions: M. smegmatis ΔrrnB 1491C mutant ribosomes; 72 h at 37° C.
Description: as §2, §3, §4, §5, §6, §7

[3] = system: AG011 Staph. aureus clinical isolate; experiment: Standard MIC assay, AG011; type: cell-based, Staphylococcus aureus; conditions: for MIC: Staphylococcus aureus, read-out: Minimal inhibitory concentrations AG011
Experimental: as §1

[4] = system: AG014 Staph. epi. clinical isolate; experiment: Standard MIC assay, AG014; type: cell-based, Staphylococcus epidermidis; conditions: for MIC: Staphylococcus epidermidis, read-out: Minimal inhibitory concentrations AG014
Experimental: as §1

[5] = system: M. smegmatis ΔrrnB 1408G (16S rRNA position 1408 G, eukaryotic cytosolic ribosomes); experiment: MIC, recombinant M. smegmatis with mutant ribosomes 1408G; type: cell-based, Mycobacterium smegmatis; conditions: M. smegmatis ΔrrnB 1408G mutant ribosomes; 72 h at 37° C.
Description: as §2, §3, §4, §5, §6, §7

[6] = system: AG019 E. faecalis JH2-2 (APH2″ AAC6′); experiment: Standard MIC assay, AG019; type: cell-based, Enterococcus faecalis; conditions: for MIC: Enterococcus faecalis, read-out: Minimal inhibitory concentrations AG019
Experimental: as §1

[7] = system: AG015 S. aureus BM3002 (ANT4′); experiment: Standard MIC assay, AG015; type: cell-based, Staphylococcus aureus; conditions: for MIC: Staphylococcus aureus, read-out: Minimal inhibitory concentrations AG015
Experimental: as §1

[8] = system: AG013 Staph. epi. clinical isolate; experiment: Standard MIC assay, AG013; type: cell-based, Staphylococcus epidermidis; conditions: for MIC: Staphylococcus epidermidis, read-out: Minimal inhibitory concentrations AG013
Experimental: as §1

[9] = system: M. smegmatis ΔrrnB (bacterial ribosomes); experiment: MIC, recombinant M. smegmatis with bacterial (wild-type) ribosomes; type: cell-based, Mycobacterium smegmatis; conditions: 72 h at 37° C.
Description: as §2, §3, §4, §5, §6, §7

[10] = system: AG002 E. coli clinical isolate; experiment: Standard MIC assay, AG002; type: cell-based, Escherichia coli; conditions: Escherichia coli, read-out: Minimal inhibitory concentrations AG002
Experimental: as §1

AG006 E. coli BM13 = experiment: Standard MIC assay, AG006; type: cell-based, Escherichia coli; conditions: Escherichia coli, read-out: Minimal inhibitory concentrations AG006
Experimental: as §1

[11] = system: AG001 E. coli clinical isolate; experiment: Standard MIC assay, AG001; type: cell-based, Escherichia coli; conditions: Escherichia coli, read-out: Minimal inhibitory concentrations AG001
Experimental: as §1

[12] = system: AG009 E. coli BM13 AAC(6′)-1B; experiment: Standard MIC assay, AG009; type: cell-based, Escherichia coli; conditions: Escherichia coli, read-out: Minimal inhibitory concentrations AG009
Experimental: as §1

[13] = system: AG003 E. coli clinical isolate; experiment: Standard MIC assay, AG003; type: cell-based, Escherichia coli; conditions: Escherichia coli, read-out: Minimal inhibitory concentrations AG003
Experimental: as §1

[14] = system: AG004 E. coli clinical isolate; experiment: Standard MIC assay, AG004; type: cell-based, Escherichia coli; conditions: Escherichia coli, read-out: Minimal inhibitory concentrations AG004
Experimental: as §1

[15] = system: AG007 E. coli BM13 (AAC3); experiment: Standard MIC assay, AG007; type: cell-based, Escherichia coli; conditions: Escherichia coli, read-out: Minimal inhibitory concentrations AG007
Experimental: as §1

For NC[C@@H]1O[C@H](O[C@H]2[C@@H](O)[C@H](O[C@@H]3[C@@H](O)[C@H](N)C[C@H](N)[C@H]3O[C@H]3O[C@H](CO)[C@@H](O)[C@H](O)[C@H]3N)O[C@@H]2CO)[C@H](N)[C@@H](O)[C@@H]1O [Paromomycin, paromomycin, reference compound], the MIC (AG016 S. aureus BM3002) was 2 to 4 µg/mL (≈ 3.25 to 6.5 µM), the MIC (AG017 E. faecalis JH2-2) was 128 to 256 µg/mL (≈ 208 to 416 µM) and the “minimal inhibitory concentrations ΔrrnB 1491A” value [1] was 64 µg/mL. For the same molecule, the “minimal inhibitory concentrations ΔrrnB 1491C” value [2] was “≧512 μg/ml”, the MIC [3] was 8 µg/mL (≈ 13 µM) and the MIC [4] was no less than 256 µg/mL. The “minimal inhibitory concentrations ΔrrnB 1408G” value [5] was 64 µg/mL, the MIC [6] was greater than 256 µg/mL and the MIC [7] was greater than 256 µg/mL. The MIC [8] was no less than 256 µg/mL and the “minimal inhibitory concentrations ΔrrnB” value [9] was 1 µg/mL.

Molecule NC[C@H]1O[C@H](O[C@H]2[C@H](O)[C@@H](O[C@H]3O[C@H](CO)[C@@H](O)[C@H](N)[C@H]3O)[C@H](N)C[C@@H]2N)[C@H](N)C[C@@H]1O [Tobramycin, reference compound] has an MIC [10] of 4 µg/mL (≈ 8.56 µM), an MIC (AG016 S. aureus BM3002) of 0.5 to 1 µg/mL (≈ 1.07 to 2.14 µM) and an MIC (AG017 E. faecalis JH2-2) of 16 to 32 µg/mL (≈ 34.2 to 68.4 µM). For the same molecule, the MIC (AG006 E. coli BM13) was 2 µg/mL (≈ 4.28 µM), the MIC [11] was 4 µg/mL (≈ 8.56 µM) and the MIC [3] was 8 µg/mL (≈ 17.1 µM). It also gave an MIC [4] of 256 µg/mL (≈ 548 µM), an MIC [12] of 128 to 256 µg/mL (≈ 274 to 548 µM) and an MIC [6] greater than 256 µg/mL. For the same molecule, the MIC [7] was no less than 256 µg/mL, the MIC [8] was no less than 256 µg/mL and the MIC [13] was 32 µg/mL (≈ 68.4 µM). It also gave an MIC [14] of 64 µg/mL (≈ 137 µM) and an MIC [15] of 8 µg/mL (≈ 17.1 µM).

In the case of Neomycin [reference compound], the “Minimal inhibitory concentrations AG016” value (AG016 S. aureus BM3002) is reported as 1 to 2 µg/mL, the “Minimal inhibitory concentrations AG017” value (AG017 E. faecalis JH2-2) is reported as 64 µg/mL and the “Minimal inhibitory concentrations AG011” value [3] is reported as 4 µg/mL. For the same molecule, the “Minimal inhibitory concentrations AG014” value [4] was 32 µg/mL, the “Minimal inhibitory concentrations AG019” value ([6]; E. faecalis JH2-2 (APH2″ AAC6′)) was greater than 256 µg/mL and the “Minimal inhibitory concentrations AG015” value ([7]; S. aureus BM3002 (ANT4′)) was 128 µg/mL. The “Minimal inhibitory concentrations AG013” value [8] was 64 to 128 µg/mL.
